{"source": "patent US6737383B1", "about": "“Herbicidal oxadiazolidines” (priority 1999, dated 2004)", "key": {"ladysthumb smartweed": {"test_system": "ladysthumb smartweed", "test": "Test C postemergence ladysthumb smartweed", "type": "in vivo, Polygonum persicaria", "settings": "0 to 100 scale, 0 no effect, 100 complete control", "experimental": "Compounds evaluated in this test were formulated in a non-phytotoxic solvent mixture which included a surfactant and applied to plants that were grown for various periods of time before treatment (postemergence application). A mixture of sandy loam soil and greenhouse potting mix in a 60:40 ratio was used for the postemergence test.\nPlantings of these crops and weed species were adjusted to produce plants of appropriate size for the postemergence test. All plant species were grown using normal greenhouse practices. […]\nTreated plants and untreated controls were maintained in a greenhouse for approximately 14, to 21 days, after which all treated plants were compared to untreated controls and visually evaluated. […]"}, "scentless chamomile": {"test_system": "scentless chamomile", "test": "Test E scentless chamomile", "type": "in vivo, Matricaria inodora", "settings": "Preemergence"}, "Green foxtail": {"test_system": "Green foxtail", "test": "Test D green foxtail", "type": "in vivo", "settings": "Preemergence, 0 to 100 scale", "excerpt": "Seeds, tubers, or plant parts of Alexandergrass (Brachiaria plantaginea), bermuda-grass (Cynodon dactylon), common pursiane (Portulaca oleracea), common ragweed (Ambrosia elatior), common groundsel (Senecio vulgaris), dallisgrass (Paspalum dilatatum), goosegrass (Eleusine indica), guineagrass (Panicum maximum), itchgrass (Rottboellia exaltata), Johnson grass (Sorghum halepense), large crabgrass (Digitaria sanguinalis), pitted morningglory (Ipomoea lacunosa), purple nutsedge (Cyperus rotundus), sandbur (Cenchrus echinatus), sourgrass (Trichachne insularis), Spanishneedles (Bidens bipinnata), surinam grass (Brachiaria decumbens) and tall mallow (Malva sylvestris) were planted into greenhouse pots of flats containing greenhouse planting medium. Plant species were grown in separate pots or individual compartments. Preemergence applications were made within one day of planting the seed or plant part.\nTest chemicals were formulated in a non-phytotoxic solvent mixture which included a surfactant and applied preemergence to the surface of the pot containing seeds in a sandy loam soil. Untreated control pots and treated pots were placed in the greenhouse for growth and visually evaluated for injury 14 to 21 days after herbicide application. Plant response ratings, summarized in Table C, are based on a 0 to 100 scale where 0 is no injury and 100 is complete control. […]"}}}
{"smiles": "CCn1c(=O)on(C(=O)N(c2ccc(F)cc2)C(C)C)c1=O", "note": "[Compound 107]", "values": [{"measurement": "Plant response rating Ladysthumb", "setting": "ladysthumb smartweed; Rate 140 g/ha", "result": 0}, {"measurement": "Plant response rating Ladysthumb", "setting": "ladysthumb smartweed; Rate 560 g/ha", "result": 30}, {"measurement": "Plant response rating, Scentless chamo", "setting": "scentless chamomile; Rate 62 g/ha, 0 to 100 scale, 0 no effect, 100 complete control", "result": 70}, {"measurement": "Plant response rating, Scentless chamo", "setting": "scentless chamomile; Rate 125 g/ha, 0 to 100 scale (0 no effect, 100 complete control)", "result": 80}, {"measurement": "Plant response rating, Scentless chamo", "setting": "scentless chamomile; Rate 250 g/ha, 0 to 100 scale", "result": 90}, {"measurement": "Plant response rating, Green foxtail", "setting": "Green foxtail; Rate 250 g/ha", "result": 100}, {"measurement": "Plant response rating, Green foxtail", "setting": "Green foxtail; Rate 500 g/ha", "result": 100}]}
